Tests used:
[1] = molecular target: T1, IRAK1 (Homo sapiens, UniProt P51617); test: IRAK1 inhibition in RKO cells treated with TNFα (Western blot); assay type: cell-based; details: RKO cells, Western blot; A51 1 μM, A14 2 μM, 16 hours, TNFα 100 units/ml
T1 construct: endogenous in cells; host or cells: RKO cells, stimulated with TNFα
Protocol: (§1) Cells were harvested and analyzed by Western blot. Blots were incubated with the following antibodies: Phospho-IRAK1 (Thr209), (A1074, AssayBiothechnology; 1/1,000), Phospho-IKKα/β (Ser176/180) (16A6, Cell Signaling; 1/1,000), IKKα (2682, cell signaling; 1/1,1000), IKK β (2370, cell signaling; 1/1,1000), Phospho-c-Jun (Ser 63) (9261, cell signaling; 1/1,1000), p53 (DO-1&1801 hybridoma mix; dilution of 1:20 of supernatants from each), CKIα (C-19; 1/1,000; Santa Cruz Biotechnology) and phospho-histoneH2AX (S139; 1/1,000; Millipore). Secondary antibodies were HRP-linked goat anti-mouse, goat anti-rabbit and rabbit anti-goat antibodies (all 1/10,000; Jackson). Inhibition of Phospho-IRAK1, Phospho-IKKα/β and Phospho-c-Jun indicate IRAK1 inhibition. p53 stabilization and phosphorylation of H2AX (γH2AX), a marker of DNA damage, indicative of CKIα kinase inhibition. CKIα protein levels serves as a loading control.
as §1, with “IRAK1 Inhibition with compounds of the invention. RKO cells were incubated for 16 hours at 37° C. with the indicated concentrations of compounds of the invention A51 (1 μM) and A14 (2 μM) (FIG. 10). At the indicated time points, RKO were treated with TNFα (100 units/ml). Cells” for “Cells”, “IKKβ” for “IKK β”, “Blots were developed using ECL (GE Healthcare). […] Also shown is” for “Inhibition of Phospho-IRAK1, Phospho-IKKα/β and Phospho-c-Jun indicate IRAK1 inhibition.”

[2] = tested on: p53, DNA damage response (γH2AX); test: p53 and DNA damage response activation in RKO cells (Western blot, primary screen and dose response); assay type: cell-based; details: 16 hours, Western blot, average value
In short: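 RKO colorectal cells exposed to 10 μM compound (primary screen) or descending concentrations (dose response) for 16 h at 37° C. Lysates Western-blotted for β-catenin, p53, CKIα and phospho-H2AX (S139), ECL detection. p53/DDR activation and β-catenin stabilization scored semi-quantitatively by degree of protein stabilization across several blots.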

T1 sequence (P51617 whole entry): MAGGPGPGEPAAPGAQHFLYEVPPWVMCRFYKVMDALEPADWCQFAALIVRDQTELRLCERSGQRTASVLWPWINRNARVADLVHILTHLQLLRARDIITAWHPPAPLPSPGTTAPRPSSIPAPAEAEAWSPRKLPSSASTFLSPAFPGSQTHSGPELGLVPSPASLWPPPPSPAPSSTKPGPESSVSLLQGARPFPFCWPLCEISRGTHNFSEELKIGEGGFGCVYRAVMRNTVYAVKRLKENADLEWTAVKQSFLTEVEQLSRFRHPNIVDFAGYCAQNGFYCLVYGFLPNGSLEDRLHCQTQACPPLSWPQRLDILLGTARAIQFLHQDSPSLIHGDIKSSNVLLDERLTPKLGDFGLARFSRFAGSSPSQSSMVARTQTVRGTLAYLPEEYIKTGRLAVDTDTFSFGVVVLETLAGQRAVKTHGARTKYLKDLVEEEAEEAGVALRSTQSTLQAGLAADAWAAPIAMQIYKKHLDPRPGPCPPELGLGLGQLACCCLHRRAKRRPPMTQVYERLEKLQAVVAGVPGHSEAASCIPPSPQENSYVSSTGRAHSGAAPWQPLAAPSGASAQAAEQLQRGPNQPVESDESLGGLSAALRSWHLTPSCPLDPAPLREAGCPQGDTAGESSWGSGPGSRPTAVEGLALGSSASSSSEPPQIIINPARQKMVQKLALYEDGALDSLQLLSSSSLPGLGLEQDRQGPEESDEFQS

IRAK1 activation and activation of the IRAK1 target IKK (in words) [1]: inhibition of IRAK1 activation
Compound: Cn1ncc(-c2ccnc(N[C@H]3CC[C@H](N)CC3)n2)c1CC1CC1 [Compound A14, (1R, 4R)—N^1-(4-(5-(cyclopropylmethyl)-1-methyl-1H-pyrazol-4-yl)pyrimidin-2-yl)cyclohexane-1,4-diamine]
DDR & p53 activity [2]: +++ (+++ indicates maximal β-catenin or p53 stabilization at >2 μM)

— patent US12514859B2, “Pyrazole pyrimidine derivative and uses thereof” (Yissum Research Development Company of the Hebrew …, priority 2015, dated 2026)
